Assays:
PC12 cells = assay: NGF-mediated differentiation of PC12 cells (Example 2); format: cell-based
[1] = test system: sAPP secretion in PC12 cells; assay: Time course of sAPP secretion in PC12 cells, Western immunoblotting (Example 2); format: cell-based; conditions: PC12 cells treated for 6, 12, 24, 48, or 72 hours; AIT-082 10 nM-100 μM; RPMI 1640 and 0.5% FBS
Description: To determine the time course of sAPP secretion after administration of AIT-082 or NGF to PC12 cells, an experiment similar to the experiment of Example 1 was carried out using multiple time points. Five to six million PC12 cells were treated in RPMI 1640 and 0.5% FBS with doses of AIT-082 (10 nM-100 μM). […] Levels of sAPP in samples from conditioned media and cell lysates were measured by Western immunoblotting with anti-sAPP antibody. When PC12 cells were treated with AIT-082 for 6, 12, 24, 48, or 72 hours, there was an increase in levels of secreted sAPP.

[2] = test system: nerve growth factor (NGF), neurotrophin-3, and basic fibroblast growth factor (bFGF); conditions: at least three neurotrophins; reference 3; cited from earlier work
[3] = test system: secretion of Aβ in cultured PC12 cells; assay: Secretion of Aβ in cultured PC12 cells, sandwich ELISA (Example 3); format: cell-based; conditions: AIT-082 100 μg/ml, PC12 conditioned media
Description: To determine the effect of AIT-082 on Aβ levels, PC12 cells were treated with a high dose of AIT-082 (100 μg/ ml) and the conditioned media was analyzed for Aβ. Levels of total Aβ were measured using a sensitive sandwich ELISA. Experiments were done in triplicate and the values were obtained from known standards run in parallel with the samples as described previously (A. Becher et al., “The Synaptophysin-Synaptobrevin Complex: A Hallmark of Synaptic […] Maturation,” J. Neurosci. 19: 1922-1931).

[4] = test system: sAPP secretion in PC12 cells; assay: sAPP secretion in PC12 cells, Western immunoblot of conditioned media (Example 1); format: cell-based; conditions: for secretion of sAPP versus control: single agent, PC12 conditioned media, 48 hours, 22C11 immunoblot, NGF 10 and 50 ng/ml, bFGF 50 ng/ml, AIT-082 different doses
Description: Treatment of Cells and Preparation of Cell Extract. PC12 cells were first grown to 70-80% confluence in the regular medium. A day prior to the experiment, PC12 cells were subcultured uniformly onto the plate with minimum cellular aggregation/ clumping to approximately 1×10^6 cells per 60-mm plate. The PC12 cells were then subjected to treatments with either AIT-082, NGF, bFGF or a combination as previously described (4). AIT-082 was added into separate plates at […] different doses: 0, 5, 20, 30, 50, 100, 300 ng/ ml and also 1, 3, 10, 30, 100 μg/ml. For comparative purposes, cultures were treated with NGF at 10 and 50 ng/ml, and bFGF was used at 50 ng/ml. Additional cultures contained both AIT-082 (300 ng/ml) and either NGF (50 ng/ml) or bFGF (50 ng/ml). Following incubation for 48 hours, the conditioned medium from each plate was collected.
PAGE and Western Immunoblotting. Total proteins from the conditioned media were analyzed on a 12% polyacrylamide gel containing SDS (SDS-PAGE), and western blot analysis was performed in the Mini-PROTEAN II system of Bio-Rad as described previously (6). sAPP was detected using the 22C11 (Boehringer Mannheim, Indianapolis, Ind.). A biotinylated secondary antibody, horse anti-mouse (Boehringer Mannheim), was also used. The detection system was based on the avidin-biotinylated-complex (Vector labs, Burlingame, Calif.) and enzymatic color reactions.
Treatment of NGF or bFGF Results in a Substantial Increase in sAPP Secretion in PC12 Cells. In denaturing polyacrylamide gel, an equal amount of total protein was loaded from each of the conditioned medium samples. After 48 hours of incubation, 50 μg samples of conditioned media were subjected to SDS-PAGE (12%) and transferred to a nitrocellulose membrane. Protein size markers shown on the left of the blot from top to bottom are: 107, 74, 49.3, 36.4, and 28.5 kDa. For FIG. 1, the transferred proteins were probed with anti-APP antibody (22C11), and immunodetection was carried out by the enzymatic color method as described previously (5). Two distinct bands of 110 and 95 kDa were detected, which correspond to soluble APP derivatives (sAPP) arising from different alternate forms of APP and/or their posttranslationally modified derivatives.

[5] = test system: sAPP release from PC12 cultures; conditions: previously shown, reference 7; cited from earlier work

O=C(CCn1cnc2c(=O)[nH]cnc21)Nc1ccc(C(=O)O)cc1 [AIT-082, N-4-carboxyphenyl-3-(6-oxohydropurin-9-yl) propanamide]
effect of cotreatment on NGF-mediated differentiation (PC12 cells; AIT-082 cotreatment with NGF, PC12 cells): enhanced NGF-mediated differentiation
levels of secreted sAPP [1]: increase
expression of neurotrophins (NGF, neurotrophin-3, bFGF) [2]: induce the expression
Percent change from controls (total Aβ) [3]: −20%
Levels of total Aβ ([3]; triplicate): 136 ± 6 fmols/ml
levels of extracellular sAPP versus control cultures (dose response, densitometry, FIG. 2) ([4]; AIT-082 5-300 ng/ml, PC12): statistically significantly higher
secretion of sAPP versus control [4]: significant increase

NGF: Nerve growth factor procured from Life Technologies
differentiation phenotype of PC12 cells (PC12 cells; NGF treatment alone): sympathetic neuronal phenotypes
secretion of sAPP versus control [4]: significant increase
release of sAPP from PC12 cultures [5]: induce the release of sAPP

bFGF: basic fibroblast growth factor procured from Life Technologies
secretion of sAPP versus control [4]: slight increase

Reference: US20020040031A1, “Methods for prevention of accumulation of amyloid beta peptide in the central nervous system” (priority 2000, published 2002)
